Laboratory results taken from paper PMC4954055, “A Self‐Assembled Respiratory Chain that Catalyzes NADH Oxidation by Ubiquinone‐10 Cycling between Complex I and the Alternative Oxidase” (Angewandte Chemie (International Ed. in English), 2015).

Target: T1, alternative oxidase (AOX) (Trypanosoma brucei, UniProt Q26710)
T1 construct: single-subunit quinol oxidase reconstituted into proteoliposomes
Experiment: coupled NADH:O2 oxidoreduction in CI/Q10/AOX proteoliposomes
Format: biochemical
Conditions: complex I rate determining; Q10H2 formed in the membrane by complex I

T1 sequence (Q26710 25-329): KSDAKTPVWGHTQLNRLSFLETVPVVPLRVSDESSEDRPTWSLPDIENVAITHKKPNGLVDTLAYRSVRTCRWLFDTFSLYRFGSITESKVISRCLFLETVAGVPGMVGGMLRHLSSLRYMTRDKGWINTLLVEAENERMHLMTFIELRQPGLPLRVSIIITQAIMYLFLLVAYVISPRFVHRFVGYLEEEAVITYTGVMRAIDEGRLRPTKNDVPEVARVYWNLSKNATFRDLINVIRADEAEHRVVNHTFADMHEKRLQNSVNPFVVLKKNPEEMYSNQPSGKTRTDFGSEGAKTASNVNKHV

COc1c(O)c(C)c(C/C=C(\C)CC/C=C(\C)CC/C=C(\C)CC/C=C(\C)CC/C=C(\C)CC/C=C(\C)CC/C=C(\C)CC/C=C(\C)CC/C=C(\C)CCC=C(C)C)c(O)c1OC [Q10H2]
coupled NADH:O2 oxidoreduction in CI/Q10/AOX proteoliposomes: AOX reoxidizes the Q10H2 and reduces O2 to H2O
